Test results reported in patent publication US20190125751A1, “ANTICANCER COMBINATION THERAPY” (BOEHRINGER INGELHEIM INTERNATIONAL GMBH, priority 2016, published 2019).

Key:
[1] = system: EGFR-exon 19 deletion+T790M+C797S; conditions: preclinical models; cited from earlier work
[2] = mouse, in vivo
From the text: (§1) Compound A is a small molecule epidermal growth factor receptor (EGFR) mutant-specific inhibitor. […] Compound A is a novel, 3rd generation EGFR mutant-specific TKI, which is currently being investigated in first and second line setting for treatment of patients with EGFR-mutated NSCLC.

mutant forms of EGFR = assay: enzymatic inhibitory activity, mutant forms of EGFR versus wild type EGFR; type: biochemical; conditions: in vitro
From the text: as §1

[3] = system: HCC827 (EGFRDelE746-A750); assay: in vivo xenograft study in mice, NSCLC model HCC827; conditions: once daily or twice daily
From the text: as §1

EGFR mutant cell lines = assay: cellular proliferation assays comparing EGFR mutant with EGFR wild type cell lines; type: cell-based; conditions: EGFR mutant versus EGFR wild type cell lines
From the text: as §1

H1975 (EGFRL858R/T790M) = assay: in vivo xenograft study in mice, NSCLC model H1975; conditions: once daily or twice daily
From the text: as §1

[4] = system: T790M-containing cell lines; conditions: several preclinical models; cited from earlier work

In the case of `C=CC(=O)Nc1cc(Nc2nccc(-c3cn(C)c4ccccc34)n2)c(OC)cc1N(C)CCN(C)C` [AZD9291, osimertinib], the “sensitivity of the mutant protein to the drug” value [1] is listed as “resistant”.
With `C=CC(=O)Nc1cccc(Oc2nc(Nc3ccc(N4CCN(C)CC4)cc3)nc3ccsc23)c1` [Compound A, N-(3-{2-[4-(4-methyl-piperazin-1-yl)-phenylamino]-thieno[3,2-d]pyrimidin-4-yloxy}-phenyl)-acrylamide] the tolerability [2] was “tolerated by the mice”, the “enzymatic inhibitory activity towards mutant forms of EGFR compared to wild type EGFR” value (mutant forms of EGFR) was “more potent” and the “anti-tumor activity as a single agent” value [3] was “Tumor regressions were observed in all models”. For the same compound, the “inhibition of proliferation of mutated cell lines at lower concentration than for cells expressing wild type EGFR receptor” value (EGFR mutant cell lines) was “approximately 35 fold” and the “anti-tumor activity as a single agent” value (H1975 (EGFRL858R/T790M)) was “Tumor regressions were observed in all models”.
For `CN(C)C/C=C/C(=O)Nc1cc2c(Nc3ccc(F)c(Cl)c3)ncnc2cc1O[C@H]1CCOC1` [Compound B, afatinib], the “inhibition of T790M-containing cell lines” value [4] is given as “effectively inhibit”.
In the case of `COc1cc2ncnc(Nc3ccc(F)c(Cl)c3)c2cc1NC(=O)/C=C/CN1CCCCC1` [dacomitinib], the “inhibition of T790M-containing cell lines” value [4] is listed as “effectively inhibit”.
